# Patent US20100298141A1, “SUBSTITUTED PYRIDINE N-OXIDE HERBICIDES” (E. I. DU PONT DE NEMOURS AND COMPANY, priority 2007, published 2010)
# What was measured:
# giant foxtail [1] = experiment: Test A pre-/postemergence greenhouse test; format: in vivo, Setaria faberi; conditions: for Foxtail, Giant plant response rating: 0 to 100 scale
# Summary of the method: (§1)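 Pre: directed soil spray on seeded loam/sand. Post: foliar spray, plants 2–10 cm, 1–2 leaf stage, applied concurrently. Vehicle: non-phytotoxic solvent + surfactant. Greenhouse ~10 d; visual injury rating vs untreated controls.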
# wild oat = experiment: Test C pre-/postemergence test; format: in vivo, Avena fatua; conditions: for Plant response rating, Oat, Wild: scale 0 to 100, 0 no effect, 100 complete control
# Summary of the method: (§2)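 Seeds were planted and treated preemergence with test chemical in a non-phytotoxic solvent mixture containing surfactant. Postemergence applications of the same formulation went onto plants 2 to 18 cm tall (1- to 4-leaf stage). A dash marks no test result.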
# bermudagrass = experiment: Test C pre-/postemergence test; format: in vivo, Cynodon dactylon; conditions: for Plant response rating, Bermudagrass: scale 0 to 100, 0 no effect, 100 complete control
# Summary of the method: as §2
# johnsongrass = experiment: Test C pre-/postemergence test; format: in vivo, Sorghum halepense; conditions: for Johnsongrass plant response rating: preemergence, scale 0 (no effect) to 100 (complete control); for Plant response rating, Johnsongrass: scale 0 to 100, 0 no effect, 100 complete control
# Summary of the method: as §2
# lambsquarters = experiment: Test C pre-/postemergence test; format: in vivo, Chenopodium album; conditions: for Plant response rating, Lambsquarters: scale 0 to 100, 0 no effect, 100 complete control
# Summary of the method: as §2
# barnyardgrass = experiment: Test C flooded paddy test; format: in vivo, Echinochloa crus-galli; conditions: Flood
# Summary of the method: (§3)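 In-water treatment: compound dosed into 3 cm flood over soil, water level unchanged throughout. Controls run alongside; visual assessment at day 13–15.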
# Surinam grass = experiment: Test C pre-/postemergence test; format: in vivo, Brachiaria decumbens; conditions: for Surinam Grass plant response rating: preemergence, scale 0 (no effect) to 100 (complete control); for Plant response rating, Surinam Grass: scale 0 to 100, 0 no effect, 100 complete control
# Summary of the method: as §2
# wheat = experiment: Test A pre-/postemergence greenhouse test; format: in vivo, Triticum aestivum; conditions: for Wheat plant response rating: 0 to 100 scale
# Summary of the method: as §1
# redroot pigweed = experiment: Test A pre-/postemergence greenhouse test; format: in vivo, Amaranthus retroflexus; conditions: for Pigweed plant response rating: 0 to 100 scale
# Summary of the method: as §1
# velvetleaf [2] = experiment: Test A pre-/postemergence greenhouse test; format: in vivo, Abutilon theophrasti; conditions: for Velvetleaf plant response rating: 0 to 100 scale
# Summary of the method: as §1
# corn = experiment: Test A pre-/postemergence greenhouse test; format: in vivo, Zea mays; conditions: for Corn plant response rating: 0 to 100 scale
# Summary of the method: as §1
# Goosegrass = experiment: Test C pre-/postemergence test; format: in vivo, Eleusin indica; conditions: for Plant response rating, Goosegrass: scale 0 to 100, 0 no effect, 100 complete control
# Summary of the method: as §2
# rice = experiment: Test C flooded paddy test; format: in vivo, Oryza sativa; conditions: Flood
# Summary of the method: as §3
# velvetleaf [3] = experiment: Test C pre-/postemergence test; format: in vivo, Abutilon theophrasti; conditions: Postemergence; for Plant response rating, Velvetleaf: scale 0 to 100, 0 no effect, 100 complete control
# Summary of the method: as §2
# common ragweed = experiment: Test C pre-/postemergence test; format: in vivo, Ambrosia elation; conditions: for Plant response rating, Ragweed: scale 0 to 100, 0 no effect, 100 complete control
# Summary of the method: as §2
# eastern black nightshade = experiment: Test C pre-/postemergence test; format: in vivo, Solanum ptycanthum
# Summary of the method: as §2
# giant foxtail [4] = experiment: Test C pre-/postemergence test; format: in vivo, Setaria faberii; conditions: for Plant response rating, Foxtail, Giant: scale 0 to 100, 0 no effect, 100 complete control
# Summary of the method: as §2
# [5] = Postemergence, 125 g ai/ha, 0 is no effect, 100 is complete control
# [6] = Postemergence, 500 g ai/ha, 0 is no effect, 100 is complete control
# [7] = Preemergence, 125 g ai/ha, 0 no effect, 100 complete control
# [8] = Preemergence, 500 g ai/ha, 0 to 100 scale where 0 is no effect and 100 is complete control
# [9] = 31 g ai/ha, Preemergence, scale 0 to 100
# [10] = 62 g ai/ha, preemergence, scale 0 (no effect) to 100 (complete control)
# [11] = preemergence, 125 g ai/ha, scale 0 (no effect) to 100 (complete control)
# [12] = 31 g ai/ha, scale 0 to 100 (0 no effect, 100 complete control)
# [13] = 62 g ai/ha, scale 0 to 100, 0 no effect, 100 complete control, 13 to 15 days
# [14] = 125 g ai/ha, scale 0 to 100, 0 no effect, 100 complete control, 13 to 15 days
# [15] = 250 g ai/ha, scale 0 to 100 (0 no effect, 100 complete control)
structure (smiles),measurement,setting,value
Cn1nc(C(F)(F)F)c(C[S+]([O-])c2cccc[n+]2[O-])c1OC(F)F (stereo not shown) [Compound 3],"Foxtail, Giant plant response rating",giant foxtail [1]; [5],80
same,"Foxtail, Giant plant response rating",giant foxtail [1]; [6],90
same,"Foxtail, Giant plant response rating",giant foxtail [1]; [7],100
same,"Plant response rating, Foxtail, Giant",giant foxtail [1]; [8],100
same,"Oat, Wild plant response rating",wild oat; [9],30
same,"Oat, Wild plant response rating",wild oat; [10],40
same,"Plant response rating (0 to 100), Oat, Wild","wild oat; Postemergence, 31 g ai/ha",0
same,"Plant response rating, Oat, Wild","wild oat; Postemergence, 62 g ai/ha",0
same,"Plant response rating, Oat, Wild","wild oat; Postemergence, 125 g ai/ha",0
same,"Plant response rating, Oat, Wild","wild oat; Postemergence, 250 g ai/ha",0
same,"Plant response rating (0 to 100), Oat, Wild","wild oat; Preemergence, 250 g ai/ha",100
same,"Oat, Wild plant response rating",wild oat; [11],80
same,Bermudagrass plant response rating,bermudagrass; [9],80
same,Bermudagrass plant response rating,bermudagrass; [10],100
same,"Plant response rating (0 to 100), Bermudagrass","bermudagrass; Postemergence, 31 g ai/ha",0
same,"Plant response rating, Bermudagrass","bermudagrass; Postemergence, 125 g ai/ha",50
same,"Plant response rating, Bermudagrass","bermudagrass; Postemergence, 250 g ai/ha",50
same,"Plant response rating (0 to 100), Bermudagrass","bermudagrass; Preemergence, 250 g ai/ha",100
same,Bermudagrass plant response rating,bermudagrass; [11],100
same,Johnsongrass plant response rating,johnsongrass; 62 g ai/ha,98
same,"Plant response rating (0 to 100), Johnsongrass","johnsongrass; Postemergence, 31 g ai/ha",0
same,"Plant response rating, Johnsongrass","johnsongrass; Postemergence, 62 g ai/ha",0
same,"Plant response rating, Johnsongrass","johnsongrass; Postemergence, 125 g ai/ha",20
same,"Plant response rating, Johnsongrass","johnsongrass; Postemergence, 250 g ai/ha",20
same,"Plant response rating (0 to 100), Johnsongrass","johnsongrass; Preemergence, 250 g ai/ha",100
same,Johnsongrass plant response rating,johnsongrass; 125 g ai/ha,100
same,Lambsquarters plant response rating,lambsquarters; [9],98
same,Lambsquarters plant response rating,lambsquarters; [10],100
same,"Plant response rating (0 to 100), Lambsquarters","lambsquarters; Postemergence, 31 g ai/ha",10
same,"Plant response rating, Lambsquarters","lambsquarters; Postemergence, 62 g ai/ha",15
same,"Plant response rating, Lambsquarters","lambsquarters; Postemergence, 125 g ai/ha",20
same,"Plant response rating, Lambsquarters","lambsquarters; Postemergence, 250 g ai/ha",20
same,"Plant response rating (0 to 100), Lambsquarters","lambsquarters; Preemergence, 250 g ai/ha",100
same,Lambsquarters plant response rating,lambsquarters; [11],100
same,"Plant response rating, Barnyardgrass",barnyardgrass; [12],0
same,"Plant response rating, Barnyardgrass",barnyardgrass; [13],50
same,"Plant response rating, Barnyardgrass",barnyardgrass; [14],75
same,"Plant response rating, Barnyardgrass",barnyardgrass; [15],85
same,Surinam Grass plant response rating,Surinam grass; 62 g ai/ha,100
same,"Plant response rating (0 to 100), Surinam Grass","Surinam grass; Postemergence, 31 g ai/ha",0
same,"Plant response rating (0 to 100), Surinam Grass","Surinam grass; Postemergence, 62 g ai/ha",0
same,"Plant response rating, Surinam Grass","Surinam grass; Postemergence, 125 g ai/ha",50
same,"Plant response rating, Surinam Grass","Surinam grass; Postemergence, 250 g ai/ha",55
same,"Plant response rating (0 to 100), Surinam Grass","Surinam grass; Preemergence, 250 g ai/ha",100
same,Surinam Grass plant response rating,Surinam grass; 125 g ai/ha,100
same,Wheat plant response rating,wheat; [5],60
same,Wheat plant response rating,wheat; [6],70
same,Wheat plant response rating,wheat; [7],60
same,"Plant response rating, Wheat",wheat; [8],100
same,Pigweed plant response rating,redroot pigweed; [5],80
same,Pigweed plant response rating,redroot pigweed; [6],90
same,Pigweed plant response rating,redroot pigweed; [7],100
same,"Plant response rating, Pigweed",redroot pigweed; [8],100
same,Velvetleaf plant response rating,velvetleaf [2]; [5],50
same,Velvetleaf plant response rating,velvetleaf [2]; [6],90
same,Velvetleaf plant response rating,velvetleaf [2]; [7],70
same,"Plant response rating, Velvetleaf",velvetleaf [2]; [8],90
same,Corn plant response rating,corn; [5],60
same,Corn plant response rating,corn; [6],80
same,Corn plant response rating,corn; [7],30
same,"Plant response rating, Corn",corn; [8],90
same,Goosegrass plant response rating,Goosegrass; [9],85
same,Goosegrass plant response rating,Goosegrass; [10],100
same,"Plant response rating (0 to 100), Goosegrass","Goosegrass; Postemergence, 31 g ai/ha",20
same,"Plant response rating, Goosegrass","Goosegrass; Postemergence, 62 g ai/ha",50
same,"Plant response rating, Goosegrass","Goosegrass; Postemergence, 125 g ai/ha",65
same,"Plant response rating, Goosegrass","Goosegrass; Postemergence, 250 g ai/ha",80
same,"Plant response rating (0 to 100), Goosegrass","Goosegrass; Preemergence, 250 g ai/ha",100
same,Goosegrass plant response rating,Goosegrass; [11],100
same,"Plant response rating, Rice",rice; [12],0
same,"Plant response rating, Rice",rice; [13],0
same,"Plant response rating, Rice",rice; [14],60
same,"Plant response rating, Rice",rice; [15],70
same,"Plant response rating (0 to 100), Velvetleaf",velvetleaf [3]; 31 g ai/ha,10
same,"Plant response rating (0 to 100), Velvetleaf",velvetleaf [3]; 62 g ai/ha,10
same,"Plant response rating, Velvetleaf",velvetleaf [3]; 125 g ai/ha,60
same,"Plant response rating, Velvetleaf",velvetleaf [3]; 250 g ai/ha,65
same,Ragweed plant response rating,common ragweed; [9],100
same,Ragweed plant response rating,common ragweed; [10],100
same,"Plant response rating (0 to 100), Ragweed","common ragweed; Postemergence, 31 g ai/ha",5
same,"Plant response rating (0 to 100), Ragweed","common ragweed; Postemergence, 62 g ai/ha",5
same,"Plant response rating, Ragweed","common ragweed; Postemergence, 125 g ai/ha",50
same,"Plant response rating, Ragweed","common ragweed; Postemergence, 250 g ai/ha",50
same,"Plant response rating (0 to 100), Ragweed","common ragweed; Preemergence, 250 g ai/ha",100
same,Ragweed plant response rating,common ragweed; [11],100
same,Nightshade plant response rating,eastern black nightshade; [9],85
same,Nightshade plant response rating,eastern black nightshade; [10],98
same,"Plant response rating (0 to 100), Nightshade","eastern black nightshade; Preemergence, 250 g ai/ha",100
same,Nightshade plant response rating,eastern black nightshade; [11],98
same,"Foxtail, Giant plant response rating",giant foxtail [4]; [9],60
same,"Foxtail, Giant plant response rating",giant foxtail [4]; [10],90
same,"Plant response rating (0 to 100), Foxtail, Giant","giant foxtail [4]; Postemergence, 31 g ai/ha",0
same,"Plant response rating, Foxtail, Giant","giant foxtail [4]; Postemergence, 62 g ai/ha",40
same,"Plant response rating, Foxtail, Giant","giant foxtail [4]; Postemergence, 125 g ai/ha",50
same,"Plant response rating, Foxtail, Giant","giant foxtail [4]; Postemergence, 250 g ai/ha",55
same,"Plant response rating (0 to 100), Foxtail, Giant","giant foxtail [4]; Preemergence, 250 g ai/ha",100
same,"Foxtail, Giant plant response rating",giant foxtail [4]; [11],98
